This passage reports melting point results from a melting point compilation (Tetko et al.; mined from patent text by program, amines drawn as free bases though some values may be those of a salt).

For `O=S(c1ccc(-n2cnnn2)cc1)C(F)F` (stereo not drawn), the melting point (commonly the temperature of the solid-liquid transition) is 109 to 112 °C.

In turn, `CC(C)n1nc(C#Cc2cccc(Cl)c2)ccc1=O` gave a melting point of 94 to 95 °C.

`COC(=O)c1nc(-c2ccccc2)ccc1Oc1nc(OC)cc(OC)n1`: the melting point is 92 to 94 °C.

In turn, `Cc1cccc(N2C(=O)CC(Cl)C2=O)c1` (stereo not drawn) returned a melting point of 137 to 138 °C.

`COc1cccc2c1CC(n1cc[nH]c1=S)CC2` (stereo not drawn) gave a melting point of 249 to 251 °C.

Regarding `O=C1Nc2c(F)cc(F)cc2C1=O`, the melting point lay within 188 to 194 °C.

For `CC(C)C(C)(C(N)=O)N1C(=O)C=CC1=O` (stereo not drawn), the melting point fell in the range of 138 to 140 °C.

In the case of `c1cc(-c2n[nH]c3c2Cc2ccc(CN4CCCC4)cc2-3)cs1`, the melting point fell in the range of 133 to 134 °C.

Turning to `CS(=O)(=O)c1ccc(-c2cnn3c(O)ncnc23)cc1`, the melting point is greater than 300 °C.

With `CS(=O)CCC(=N)NS(N)(=O)=O` (stereo not drawn), the melting point is 141 to 144 °C.

`Cc1ccc(-c2ccc(C(=O)Nc3ccc4cc(CN5CCCC5)cnc4c3)cn2)cc1` came in with a melting point of 226 to 228 °C.

On to `O=C(NCc1cccc(-c2nc(=O)c3ccccc3s2)n1)C(F)(F)F`, for which the melting point was 226 to 227 °C.

For `Cc1cc(C(=O)CCc2cc(-c3ccc(C(F)(F)F)cc3)nn2Cc2ccccc2)ccc1OCC(=O)O`, the melting point was in the range of 175 to 180 °C.

Compound `COc1cc(COc2ncccc2CO)ccc1OCc1nc(-c2ccccc2)oc1C` had a melting point of 143 to 144 °C.

As to `NC(=O)c1ccc(NC2CCN(Cc3ccccc3)CC2)cc1`, the melting point lay in the range of 192 to 193 °C.

Turning to `O=C(NC(=O)c1ccccc1Br)Nc1cc(C(F)(F)F)c(Cl)cc1Br`, the melting point was 193 °C.

`CCOc1nc2cccc(CC)c2c(=O)o1` displayed a melting point of 89 to 91 °C.

In the case of `CN1CCN(CC(=O)Nc2cccc3c2C(=O)c2c-3n[nH]c2-c2ccc(N3CCOCC3)cc2)CC1`, the melting point was 258 °C.

For the compound `COc1ccc(C(=O)Nc2nc3ccc(N(C)C)cc3c(NCc3ccco3)c2C#N)cc1`, the melting point came to 195 °C.

Take `Cc1cccc2c1N(Cc1ccccn1)C(=O)C(NC(=O)Nc1cccc(-c3nnn[nH]3)c1)N=C2c1ccccc1F` (stereo not drawn): the melting point is 174 to 182 °C.

Compound `N#Cc1nn(-c2c(Cl)cc(C(F)(F)F)cc2Cl)c(Cl)c1C=O` returned a melting point of 145 to 146 °C.

For the compound `COc1ccccc1Oc1c(NS(=O)(=O)c2ccc(C(C)(C)C)cc2)nc(NCCN(C)C)nc1OCCOC1CCCCO1` (stereo not drawn), the melting point lay in the range of 82 to 86 °C.

The compound `CC(C)(C)c1cc(C(=O)Nc2ccc(N)cc2)cc(C(C)(C)C)c1O` displayed a melting point of 220 to 221 °C.

`CC(C)(O)C1C(=O)N2C(C(=O)OCc3ccccc3)=C(Sc3ccccc3)CC12` (stereo not drawn) displayed a melting point of 133 to 136 °C.

Compound `CN(C)CCNC(=O)Cn1c(-c2ccc(Br)cc2)nc2cccnc21` had a melting point of 195 to 197 °C.

In the case of `O=c1[nH]c(-c2ccc(F)cc2)c(CCCl)s1`, the melting point was 138 °C.

`CC(C)NCC(O)COc1ccc(NC(=O)N(C)C)cc1Cl` (stereo not drawn) registered a melting point of 130 °C.

Take `CCCNC(=O)N(CCC(=O)OC)CC1CC2c3cccc4[nH]cc(c34)CC2N(C)C1` (stereo not drawn): the melting point was 130 to 132 °C.

As to `O=C1Cc2cc(Cl)c(N3CCCCC3)cc2O1`, the melting point was in the range of 129 to 131 °C.

Regarding `COc1ccc(COc2ccc3cc(C(C)C(=O)O)ccc3c2)cc1OC1CC2CCC1C2` (stereo not drawn), the melting point lay in the range of 125 to 128 °C.

As to `CN(C)S(=O)(=O)c1cc(Cl)c(Cl)c(Cl)c1SCSC#N`, the melting point fell in the range of 155 to 156 °C.

With `CC(=O)OC1CSC(Oc2ccc(-c3ccoc3)cc2F)C(OC(C)=O)C1OC(C)=O` (stereo not drawn), the melting point was determined as 137 °C.

`CC(=O)NC1=CC(C)(C)Oc2cc3nonc3cc21`: the melting point was in the range of 218 to 220 °C.

Take `CN(C)c1nnc(Br)c(=O)[nH]1`: the melting point is 261 to 262 °C.

`N[C@H](C1CCCCC1)C(O)(c1ccccc1)c1ccccc1` displayed a melting point of 181 to 182 °C.

`CC(C)N1CC2(COc3ccccc3OC2)OC1=O` registered a melting point of 118 to 120 °C.

For the compound `CC(=O)CC1CC2CN(C(=O)c3ccccc3)c3cccc(c32)C1=O` (stereo not drawn), the melting point lay in the range of 117 to 119 °C.

`CC(C)n1cc(-c2ccc(F)cc2)nn1` came in with a melting point of 54 to 55 °C.

`Cc1cc(-c2c(-c3ccc(F)cc3)ncn2CC2CC2)ccn1` displayed a melting point of 141 to 142 °C.

In turn, `CC(C)c1ccc2ncn(/C=C/C(=O)NCCNCc3ccccn3)c(=O)c2c1` registered a melting point of 91 to 95 °C.

For `O=C(O)c1cc(NC(=O)C(CS)Cc2ccccc2)ccc1Cl` (stereo not drawn), the melting point fell in the range of 190 to 192 °C.

`NS(=O)(=O)c1cc2c(cc1Cl)NC(C1CCCCC1)NS2(=O)=O` (stereo not drawn): the melting point fell in the range of 274 to 276 °C.

Compound `CON(C)C(=O)COc1nnc(-c2ccc3c(c2)CCO3)o1` yielded a melting point of 139 to 140 °C.

Compound `CCCc1c(OC(=O)OCC)ccc2oc(Cc3ccc(OC)cc3)c(C)c12` came in with a melting point of 51 to 53 °C.

With `CCC(=O)NCC1CC1c1cccc2nn(CC)cc12` (stereo not drawn), the melting point fell in the range of 114 to 115 °C.

As to `O=c1[nH]c2cscc2c(=O)n1CCCCCN1CCC(=C(c2ccc(F)cc2)c2ccc(F)cc2)CC1`, the melting point was 118 to 122 °C.

`O=C(O)c1cc(C(F)(F)F)cc([N+](=O)[O-])c1Cl` gave a melting point of 173 °C.

`CN(C)c1ccc(C=C2C=C(C(C)(C)C)C(=O)C(C(C)(C)C)=C2)cc1` gave a melting point of 175 °C.

Compound `N#Cc1ccc2c(c1)c(-c1ccccc1)nn2CCCBr` gave a melting point of 100 to 102 °C.

For `C=CCONC(=O)c1c([Si](C)(C)C)ccc(Cl)c1Cl`, the melting point is 92 to 94 °C.

For `O=C1C=C(c2c[nH]c3ccccc23)C(=O)O1`, the melting point is 210 to 214 °C.

In the case of `COc1ccc(NC(=O)C2(C(=O)O)CC2)cc1`, the melting point was in the range of 133 to 136 °C.

Compound `CC(=O)NNc1ccc(N)cc1` returned a melting point of 130 to 140 °C.

Regarding `O=C(NC1CCN(CCC2CCCCC2)CC1)c1ccccc1`, the melting point lay within 174 to 175 °C.

On to `COn1c(=S)n(C)c(=O)c2ccccc21`, for which the melting point came out at 184 °C.

`CC(c1ccc(Oc2ccccc2)cc1)N(O)C(N)=O` (stereo not drawn): the melting point lay within 118 to 119 °C.

In the case of `CC1Nc2cnccc2N(C)n2cccc21` (stereo not drawn), the melting point was 157 to 160 °C.

In the case of `N=C(Nc1ccc(Cl)cc1)Nc1ncccc1OCc1c(F)cccc1Cl`, the melting point fell in the range of 168 to 170 °C.

`N#CCCc1cncnc1N[C@H]1CC[C@@H](c2ccccc2)CC1` gave a melting point of 58 to 59 °C.

`CCOC(=O)COc1c(CO)c(C(F)(F)F)nn1C` showed a melting point of 57 to 59 °C.

For `Cc1c(-c2ccc(O)cc2)n(Cc2ccc(OCCN(C(C)C)C(C)C)cc2)c2ccc(O)cc12`, the melting point fell in the range of 96 to 102 °C.

The compound `COc1ccc(Nc2ccn(Cc3ccccc3)n2)cc1` gave a melting point of 68 to 71 °C.

Take `O=C(OC(C(F)(F)F)C(F)(F)F)c1c2ccccc2nc2ccccc12`: the melting point is 143 to 145 °C.

Turning to `COC1=CC(=O)c2c(c(CO)cn2C)C1=O`, the melting point lay within 182 to 184 °C.

In turn, `C[C@@H](NC(=O)c1[nH]c2ccc(Cl)cc2c1S(=O)(=O)c1ccccc1)c1ccccc1` returned a melting point of 149 °C.

With `COc1cccc2c1Oc1cc(SC)ccc1C2`, the melting point is 112 to 114 °C.

For `CCCOc1ccc(/C=C/C(=O)OC(C)(C)C)cc1-c1nc2c(c(C)nn2CCC)c(=O)[nH]1`, the melting point was 181 to 182 °C.

Take `O=C1C=CC2=CN=C(c3ccco3)N3CCC(=C23)N1`: the melting point lay in the range of 278 to 279 °C.

Take `CC12C=CC(=O)C=C1CCC1C3CC(OCCOC4CCCCO4)C(O)(C(=O)CCl)C3(C)CC(O)C12F` (stereo not drawn): the melting point lay in the range of 168 to 170 °C.

As for `CCOC(=O)Cc1ccnc(-c2nn(C(C)(C)C)c(N)c2C#N)c1`, the melting point fell in the range of 141 to 143 °C.

Compound `COc1cc(C[C@H](NC(=O)OC(C)(C)C)C(=O)O)cc(OC)c1OC` displayed a melting point of 76 to 80 °C.

Turning to `NC(=O)NN=Cc1ccc(N(c2ccccc2)c2ccccc2)cc1`, the melting point was in the range of 106 to 114 °C.

For `O=C1C=CC=C2CN=CC=C12`, the melting point is 232 to 234 °C.

For `CCCOc1ccc([N+](=O)[O-])cc1C1=NC(=O)C2=NC=NC2=N1`, the melting point lay within 254 to 256 °C.

`O=C(O)CCCCCCCCCCCCCCCI` displayed a melting point of 71 to 72 °C.

`CC(=O)Nc1ccc(C2=NNC(=O)C2)cc1`: the melting point is 254 to 258 °C.

In the case of `CC(C)(C)C(NC(=O)c1ccc(Cl)cc1)Nc1c(Nc2ccncc2)c(=O)c1=O` (stereo not drawn), the melting point lay in the range of 244 to 246 °C.

Compound `Cc1ccc2sc(S(=O)(=O)c3cn[nH]c(=O)c3)cc2c1` registered a melting point of 240 to 242 °C.

`CN1OC(CNc2ccccc2)CC1(Cn1ccnc1)c1ccc(Cl)cc1` (stereo not drawn) showed a melting point of 159 to 160 °C.

`c1ccc2c(c1)OCc1c(-c3nc(C4CC4)no3)ncn1-2` registered a melting point of 169 to 173 °C.

Take `Nc1c2c(nc3cccc(Cl)c13)C(=O)CCC2`: the melting point came to 205 °C.

In turn, `O=C(c1cc(Cc2c[nH]cn2)ccc1O)N1CCCC1` registered a melting point of 96 to 98 °C.

`CCC1(c2cccc(OC)c2)CCCC(=O)N(C)C1` (stereo not drawn) yielded a melting point of 69 to 71 °C.

Compound `O=C(O)Cn1c(=O)c2cc(Cc3ncc[nH]3)ccc2n(Cc2ccc(Cl)c(Cl)c2)c1=O` registered a melting point of 243 to 244 °C.

`N#Cc1ccc(NC(=S)N2CCN(c3cnccn3)CC2)cc1` came in with a melting point of 208 to 210 °C.

`COc1ccc(/C=C/C(=O)/C=C/c2ccc(OC(F)(F)F)cc2)cc1` showed a melting point of 105 to 107 °C.

On to `CCOC(=O)c1cnn(-c2ccc(OCC(C)C)c(C#N)c2)c1`, for which the melting point lay within 138 to 139 °C.

`CC(=O)Nc1cc(Br)c(O)c(Br)c1` gave a melting point of 155 to 156 °C.

For `CCC(C)C(NC(=O)C(CSC(C)=O)C(F)(F)F)C(=O)O` (stereo not drawn), the melting point lay in the range of 81 to 85 °C.

With `COc1cc([N+](=O)[O-])ccc1S(=O)(=O)N1C(=O)C(N)(c2ccccc2Cl)c2cc(Cl)ccc21` (stereo not drawn), the melting point came to 229 °C.

For the compound `Nc1cc(=O)n(Cc2ccccc2C(F)(F)F)[nH]1`, the melting point worked out at 184 °C.

As for `C[C@H]1OC(=O)[C@@H]2C=C3CCCC[C@H]3[C@H](O)[C@H]12`, the melting point was in the range of 156 to 157 °C.

For the compound `COc1cc(Cc2cnc(NC(=O)C(C)(C)C)nc2NC(=O)C(C)(C)C)c(C=O)c(OC)c1OC`, the melting point was 162 to 163 °C.
